These results are taken from patent publication US20130109682A1, “CYCLIC ETHER COMPOUNDS USEFUL AS KINASE INHIBITORS” (NOVARTIS AG, priority 2010, published 2013).

In experiment [1] the target is PIM3 (Homo sapiens, UniProt Q86V86). The experiment can be described thus: KinaseGlo Pim3 ATP depletion assay. It counts as biochemical. The method, boiled down: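 Kinase was preincubated 15 min with BAD peptide in HEPES pH 7.5/MgCl2/DTT/BSA before ATP was added. Final concentrations were 40 μM ATP, 100 μM BAD peptide and 2.5% DMSO, with 5 nM enzyme. The reaction ran to ~50% ATP depletion and remaining ATP was read by KinaseGlo Plus luminescence.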

For experiment [2], the target named is PIM1 (Homo sapiens, UniProt P11309). Kind of experiment: KinaseGlo Pim1 ATP depletion assay. The class given is biochemical. The procedure, abridged:
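2.5 nM PIM1 preincubated 15 min with compound and 40 μM BAD peptide in 50 mM HEPES pH 7.5, 5 mM MgCl2, 1 mM DTT, 0.05% BSA, 2.5% DMSO. The reaction was started with 20 μM ATP (final) and run to about 50% ATP depletion. Remaining ATP read by KinaseGlo Plus luminescence to give IC50.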

Experiment [3] has as its target GSK3β (Homo sapiens, UniProt P49841). The experiment can be described thus: GSK3β ATP depletion assay. The class given is biochemical. The note with it: read-out: GSK3b IC50. The procedure, abridged: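 Human GSK3β (5 nM) preincubated 15 min with 10 μM biotinylated phospho-CREB peptide in pH 7.5 Tris buffer (15 mM MgCl2, 1 mM DTT, 0.1% BSA, 2.5% DMSO). Reaction started with 2 μM ATP and run to about 50% ATP depletion. Remaining ATP measured by KinaseGlo luminescence.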

Experiment [4] has as its system KMS11 (human myeloma cell line). Kind of experiment: Cell proliferation assay (CellTiter-Glo), KMS11. It counts as cell-based. The settings on record: KMS11-Luc cells. The procedure, abridged: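 KMS11 cells in IMDM with 10% FBS and sodium pyruvate, seeded at 2000 cells/well on assay day. Compound added at 2× to equal volume of cells, incubated 3 days at 37° C. Viability read by CellTiter-Glo luminescence; EC50 derived.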

The target in experiment [5] is PIM2 (Homo sapiens, UniProt Q9P1W9). The experiment can be described thus: KinaseGlo Pim2 ATP depletion assay. The class given is biochemical. The procedure, abridged:
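Luminescent ATP-depletion read-out of PIM2 phosphorylating BAD peptide (RSRHSSYPAGT-OH). Final conditions: 5 nM PIM2, 4 μM ATP, 10 μM peptide, 2.5% DMSO in 50 mM HEPES pH 7.5, 5 mM MgCl2, 1 mM DTT, 0.05% BSA. Enzyme–peptide preincubated 15 min with compound; reaction run to ~50% ATP depletion.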

Chain of PIM2 (Q9P1W9 whole entry): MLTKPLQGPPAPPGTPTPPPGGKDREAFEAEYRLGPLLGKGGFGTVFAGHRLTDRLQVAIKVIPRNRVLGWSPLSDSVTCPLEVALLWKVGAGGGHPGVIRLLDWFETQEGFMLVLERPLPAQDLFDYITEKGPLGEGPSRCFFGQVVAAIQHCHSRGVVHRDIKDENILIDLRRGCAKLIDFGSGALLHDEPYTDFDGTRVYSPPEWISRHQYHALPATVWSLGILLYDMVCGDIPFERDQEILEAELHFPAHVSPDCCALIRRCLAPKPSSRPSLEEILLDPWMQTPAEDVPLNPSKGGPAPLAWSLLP
Chain of PIM1 (P11309 whole entry): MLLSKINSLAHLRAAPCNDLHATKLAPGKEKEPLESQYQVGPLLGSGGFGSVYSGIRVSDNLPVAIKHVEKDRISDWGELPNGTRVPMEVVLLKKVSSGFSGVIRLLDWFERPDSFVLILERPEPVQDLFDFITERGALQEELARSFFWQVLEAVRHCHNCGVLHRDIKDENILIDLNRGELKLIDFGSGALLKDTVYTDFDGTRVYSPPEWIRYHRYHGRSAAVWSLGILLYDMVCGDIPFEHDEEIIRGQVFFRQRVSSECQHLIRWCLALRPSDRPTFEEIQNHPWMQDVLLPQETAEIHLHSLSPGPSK
Chain of GSK3β (P49841 whole entry, species assumed): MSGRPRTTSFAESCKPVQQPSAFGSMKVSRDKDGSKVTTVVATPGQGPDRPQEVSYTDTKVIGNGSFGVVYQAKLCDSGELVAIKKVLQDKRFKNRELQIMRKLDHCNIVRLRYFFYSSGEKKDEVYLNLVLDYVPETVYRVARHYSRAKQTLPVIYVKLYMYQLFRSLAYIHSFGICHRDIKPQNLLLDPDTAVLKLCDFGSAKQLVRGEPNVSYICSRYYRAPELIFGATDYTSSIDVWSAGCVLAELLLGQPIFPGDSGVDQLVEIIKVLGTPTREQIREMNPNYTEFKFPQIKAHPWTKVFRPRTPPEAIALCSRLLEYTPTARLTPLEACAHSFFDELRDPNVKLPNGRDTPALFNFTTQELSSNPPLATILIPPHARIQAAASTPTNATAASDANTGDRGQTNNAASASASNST

As to `N#CC[C@H]1O[C@@H](c2ccncc2NC(=O)c2nc(-c3c(F)cccc3F)ncc2N)C[C@@H](O)[C@@H]1O` [Example 138, 5-amino-N-(4-((2R,4R,5S,6R)-6-(cyanomethyl)-4,5-dihydroxytetrahydro-2H-pyran-2-yl)pyridin-3-yl)-2-(2,6-difluorophenyl)pyrimidine-4-carboxamide], the IC50 is 14 nM in experiment [1], 24 nM in experiment [2], 235 nM in experiment [3] and 27 nM in experiment [5]. In experiment [4] (Homo sapiens, KMS-11), this compound showed an EC50 greater than 10000 nM.
As for `N#CC[C@H]1O[C@@H](c2ccncc2NC(=O)c2nc(-c3c(F)cccc3F)c(F)cc2N)C[C@@H](O)[C@@H]1O` [Example 139, 3-amino-N-(4-((2R,4R,5S,6R)-6-(cyanomethyl)-4,5-dihydroxytetrahydro-2H-pyran-2-yl)pyridin-3-yl)-6-(2,6-difluorophenyl)-5-fluoropicolinamide], the IC50 in experiment [1] worked out at 2 nM; in experiment [2] it was 1 nM; in experiment [3], 450 nM; in experiment [5], 5 nM. The concentration giving a half-maximal response (EC50) in experiment [4] (Homo sapiens, KMS-11) is greater than 10000 nM.
Consider `CC[C@H]1O[C@@H](c2ccncc2NC(=O)c2nc(-c3nccs3)ccc2N)C[C@@H](O)[C@@H]1O` [Example 140, 3-amino-N-(4-((2R,4R,5S,6R)-6-ethyl-4,5-dihydroxytetrahydro-2H-pyran-2-yl)pyridin-3-yl)-6-(thiazol-2-yl)picolinamide], for which the IC50 in experiment [1] was determined as 19 nM; in experiment [2], 18 nM; in experiment [3] it was 2250 nM; in experiment [5] it was 54 nM. The compound further came in with an EC50 in experiment [4] (Homo sapiens, KMS-11) greater than 10000 nM.
In the case of `NC(=O)[C@H]1O[C@@H](c2ccncc2NC(=O)c2ccc(F)c(-c3c(F)cccc3F)n2)C[C@@H](O)[C@@H]1O` [Example 141, N-(4-((2R,4R,5S,6S)-6-carbamoyl-4,5-dihydroxytetrahydro-2H-pyran-2-yl)pyridin-3-yl)-6-(2,6-difluorophenyl)-5-fluoropicolinamide], the IC50 in experiment [1] came out at 94 nM; in experiment [2], 181 nM; in experiment [3] it was 3360 nM; in experiment [5], 720 nM. In experiment [4] (Homo sapiens, KMS-11), this compound returned an EC50 greater than 10000 nM.
In the case of `NC(=O)C[C@H]1O[C@@H](c2ccncc2NC(=O)c2ccc(F)c(-c3c(F)cccc3F)n2)C[C@@H](O)[C@@H]1O` [Example 142, N-(4-((2R,4R,5S,6R)-6-(2-amino-2-oxoethyl)-4,5-dihydroxytetrahydro-2H-pyran-2-yl)pyridin-3-yl)-6-(2,6-difluorophenyl)-5-fluoropicolinamide], the IC50 was 890 nM in experiment [1], 1080 nM in experiment [2], greater than 25000 nM in experiment [3] and 6600 nM in experiment [5]. This compound gave an EC50 in experiment [4] (Homo sapiens, KMS-11) greater than 10000 nM.
On to `C=C[C@H]1OC(c2ccncc2NC(=O)c2nc(-c3c(F)cccc3F)ncc2N)=C[C@@H](O)[C@@H]1O` [Example 144, 5-amino-2-(2,6-difluorophenyl)-N-(4-((2R,3S,4R)-3,4-dihydroxy-2-vinyl-3,4-dihydro-2H-pyran-6-yl)pyridin-3-yl)pyrimidine-4-carboxamide], for which the IC50 in experiment [1] is 4.3 nM; in experiment [2], 5.3 nM; in experiment [3], 394 nM; in experiment [5] it was 3.7 nM. This compound also returned an EC50 in experiment [4] (Homo sapiens, KMS-11) of 4340 nM.
As for `CC[C@H]1O[C@@H](c2ccncc2NC(=O)c2nc(-c3nccs3)ccc2N)C[C@@H](O)[C@@H]1O` [Example 145, 3-amino-N-(4-((2R,4R,5S,6R)-6-ethyl-4,5-dihydroxytetrahydro-2H-pyran-2-yl)pyridin-3-yl)-6-(thiazol-2-yl)picolinamide], the IC50 in experiment [1] is 19.4 nM; in experiment [2], 18.4 nM; in experiment [3], 2250 nM; in experiment [5], 57.5 nM. The compound further came in with an EC50 in experiment [4] greater than 10000 nM.
As to `C[C@H]1O[C@@H](c2ccncc2NC(=O)c2nc(-c3c(F)cccc3F)ncc2N)C[C@@H](O)[C@]1(C)O` [Example 146, 5-amino-2-(2,6-difluorophenyl)-N-(4-((2R,4R,5S,6R)-4,5-dihydroxy-5,6-dimethyltetrahydro-2H-pyran-2-yl)pyridin-3-yl)pyrimidine-4-carboxamide], the IC50 in experiment [1] stood at 5.1 nM; in experiment [2], 5.7 nM; in experiment [3], 345 nM; in experiment [5] it was 9.5 nM. The EC50 in experiment [4] (Homo sapiens, KMS-11) is greater than 10000 nM.
Regarding `C[C@H]1O[C@@H](c2ccncc2NC(=O)c2nc(-c3nccs3)ccc2N)C[C@@H](O)[C@]1(C)O` [Example 147, 3-amino-N-(4-((2R,4R,5S,6R)-4,5-dihydroxy-5,6-dimethyltetrahydro-2H-pyran-2-yl)pyridin-3-yl)-6-(thiazol-2-yl)picolinamide], the IC50 in experiment [1] was determined as 18.5 nM; in experiment [2] it was 17.4 nM; in experiment [3], 1320 nM; in experiment [5], 71.3 nM. The EC50 in experiment [4] (Homo sapiens, KMS-11) is greater than 10000 nM.
On to `N#C[C@H]1O[C@@H](c2ccncc2NC(=O)c2nc(-c3c(F)cccc3F)ncc2N)C[C@@H](O)[C@@H]1O` [Example 148, 5-amino-N-(4-((2R,4R,5S,6R)-6-cyano-4,5-dihydroxytetrahydro-2H-pyran-2-yl)pyridin-3-yl)-2-(2,6-difluorophenyl)pyrimidine-4-carboxamide], for which the IC50 was determined as 20.4 nM in experiment [1], 29.7 nM in experiment [2], 691 nM in experiment [3] and 30.3 nM in experiment [5]. This compound returned an EC50 in experiment [4] (Homo sapiens, KMS-11) greater than 10000 nM.
The like results for `N#C[C@H]1O[C@@H](c2ccncc2NC(=O)c2ccnc(-c3c(F)cccc3F)n2)C[C@@H](O)[C@@H]1O` [Example 149, N-(4-((2R,4R,5S,6R)-6-cyano-4,5-dihydroxytetrahydro-2H-pyran-2-yl)pyridin-3-yl)-2-(2,6-difluorophenyl)pyrimidine-4-carboxamide] were, in that order, 143 nM, 79.8 nM, 209 nM, 458 nM and greater than 10000 nM.
On the same counts, the results for `N#C[C@H]1O[C@@H](c2ccncc2NC(=O)c2nc(-c3nccs3)ccc2N)C[C@@H](O)[C@@H]1O` [Example 150, 3-amino-N-(4-((2R,4R,5S,6R)-6-cyano-4,5-dihydroxytetrahydro-2H-pyran-2-yl)pyridin-3-yl)-6-(thiazol-2-yl)picolinamide] are 53.3 nM, 57.1 nM, 207 nM, 156 nM and greater than 10000 nM.
For `Nc1cc(F)c(-c2ccccc2F)nc1C(=O)Nc1cnccc1C1=CC(=O)[C@H](O)[C@@H](CCl)O1` [Example 151, 3-amino-N-(4-((2S,3R)-2-(chloromethyl)-3-hydroxy-4-oxo-3,4-dihydro-2H-pyran-6-yl)pyridin-3-yl)-5-fluoro-6-(2-fluorophenyl)picolinamide], the IC50 in experiment [1] was determined as 25.1 nM; in experiment [2] it was 5.2 nM; in experiment [3], 1430 nM; in experiment [5] it was 84.2 nM. The same compound returned an EC50 in experiment [4] (Homo sapiens, KMS-11) greater than 10000 nM.
With `N#CC[C@H]1O[C@@H](c2ccncc2NC(=O)c2nc(-c3c(F)cccc3F)c(F)cc2N)C[C@@H](O)[C@@H]1O` [Example 152, 3-amino-N-(4-((2R,4R,5S,6R)-6-(cyanomethyl)-4,5-dihydroxytetrahydro-2H-pyran-2-yl)pyridin-3-yl)-6-(2,6-difluorophenyl)-5-fluoropicolinamide], the IC50 in experiment [1] is 2.3 nM; in experiment [2], 1.3 nM; in experiment [3], 450 nM; in experiment [5], 5.4 nM. In experiment [4], this compound returned an EC50 greater than 10000 nM.
As to `N#CC[C@H]1O[C@@H](c2ccncc2NC(=O)c2nc(-c3c(F)cccc3F)ncc2N)C[C@@H](O)[C@@H]1O` [Example 153, 5-amino-N-(4-((2R,4R,5S,6R)-6-(cyanomethyl)-4,5-dihydroxytetrahydro-2H-pyran-2-yl)pyridin-3-yl)-2-(2,6-difluorophenyl)pyrimidine-4-carboxamide], the IC50 amounted to 13.5 nM in experiment [1], 23.6 nM in experiment [2], 235 nM in experiment [3] and 26.7 nM in experiment [5]. In addition, the EC50 in experiment [4] was greater than 10000 nM.
Turning to `CC[C@]1(O)[C@H](O)C[C@H](c2ccncc2NC(=O)c2nc(-c3ncccc3F)ccc2N)O[C@@H]1C` [Example 155, 5-amino-N-(4-((2R,4R,5S,6R)-5-ethyl-4,5-dihydroxy-6-methyltetrahydro-2H-pyran-2-yl)pyridin-3-yl)-3′-fluoro-2,2′-bipyridine-6-carboxamide], the IC50 in experiment [1] amounted to 5.3 nM; in experiment [2], 4 nM; in experiment [3], 374 nM; in experiment [5], 46.3 nM. For the same compound, a half-maximal effect in experiment [4] (Homo sapiens, KMS-11) (EC50) was put at 4920 nM.
